One experiment has as its target CDK1/cyclin B (Homo sapiens, UniProt P06493). Briefly: biochemical. The following applies: read-out: % enzyme activity, 1 μM; Run 1, Run 2.
The next experiment has as its target T1, GLK/MAP4K3 (Homo sapiens, UniProt Q8IVH8).
T1 sequence (Q8IVH8 1-894): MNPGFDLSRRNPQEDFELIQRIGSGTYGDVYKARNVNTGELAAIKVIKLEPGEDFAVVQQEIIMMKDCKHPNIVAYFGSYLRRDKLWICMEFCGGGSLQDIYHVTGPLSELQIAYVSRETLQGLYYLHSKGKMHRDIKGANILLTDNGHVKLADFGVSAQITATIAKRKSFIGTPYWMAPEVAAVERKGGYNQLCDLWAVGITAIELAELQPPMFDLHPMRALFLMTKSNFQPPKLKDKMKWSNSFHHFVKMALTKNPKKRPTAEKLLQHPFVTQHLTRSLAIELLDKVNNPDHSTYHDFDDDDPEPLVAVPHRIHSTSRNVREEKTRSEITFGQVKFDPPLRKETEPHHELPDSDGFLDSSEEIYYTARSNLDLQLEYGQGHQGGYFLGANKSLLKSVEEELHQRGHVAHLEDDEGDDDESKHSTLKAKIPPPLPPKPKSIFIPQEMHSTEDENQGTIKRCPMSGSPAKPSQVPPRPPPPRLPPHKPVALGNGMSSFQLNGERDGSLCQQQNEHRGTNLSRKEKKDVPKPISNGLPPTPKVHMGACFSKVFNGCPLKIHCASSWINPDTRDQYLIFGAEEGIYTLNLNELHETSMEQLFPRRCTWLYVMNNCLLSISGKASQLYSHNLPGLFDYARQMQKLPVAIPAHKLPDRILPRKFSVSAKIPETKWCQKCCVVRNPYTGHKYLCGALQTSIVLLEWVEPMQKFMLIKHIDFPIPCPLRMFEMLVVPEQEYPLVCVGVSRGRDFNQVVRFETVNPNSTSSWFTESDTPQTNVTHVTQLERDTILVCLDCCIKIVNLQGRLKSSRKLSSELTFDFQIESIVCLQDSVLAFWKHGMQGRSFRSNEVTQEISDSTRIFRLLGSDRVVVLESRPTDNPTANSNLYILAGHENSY
Put plainly: biochemical. The following applies: read-out: % enzyme activity, 1 μM; Run 1, Run 2.

The target of another experiment is T2, NEK9 (Homo sapiens, UniProt Q8TD19).
T2 sequence (Q8TD19 1-979): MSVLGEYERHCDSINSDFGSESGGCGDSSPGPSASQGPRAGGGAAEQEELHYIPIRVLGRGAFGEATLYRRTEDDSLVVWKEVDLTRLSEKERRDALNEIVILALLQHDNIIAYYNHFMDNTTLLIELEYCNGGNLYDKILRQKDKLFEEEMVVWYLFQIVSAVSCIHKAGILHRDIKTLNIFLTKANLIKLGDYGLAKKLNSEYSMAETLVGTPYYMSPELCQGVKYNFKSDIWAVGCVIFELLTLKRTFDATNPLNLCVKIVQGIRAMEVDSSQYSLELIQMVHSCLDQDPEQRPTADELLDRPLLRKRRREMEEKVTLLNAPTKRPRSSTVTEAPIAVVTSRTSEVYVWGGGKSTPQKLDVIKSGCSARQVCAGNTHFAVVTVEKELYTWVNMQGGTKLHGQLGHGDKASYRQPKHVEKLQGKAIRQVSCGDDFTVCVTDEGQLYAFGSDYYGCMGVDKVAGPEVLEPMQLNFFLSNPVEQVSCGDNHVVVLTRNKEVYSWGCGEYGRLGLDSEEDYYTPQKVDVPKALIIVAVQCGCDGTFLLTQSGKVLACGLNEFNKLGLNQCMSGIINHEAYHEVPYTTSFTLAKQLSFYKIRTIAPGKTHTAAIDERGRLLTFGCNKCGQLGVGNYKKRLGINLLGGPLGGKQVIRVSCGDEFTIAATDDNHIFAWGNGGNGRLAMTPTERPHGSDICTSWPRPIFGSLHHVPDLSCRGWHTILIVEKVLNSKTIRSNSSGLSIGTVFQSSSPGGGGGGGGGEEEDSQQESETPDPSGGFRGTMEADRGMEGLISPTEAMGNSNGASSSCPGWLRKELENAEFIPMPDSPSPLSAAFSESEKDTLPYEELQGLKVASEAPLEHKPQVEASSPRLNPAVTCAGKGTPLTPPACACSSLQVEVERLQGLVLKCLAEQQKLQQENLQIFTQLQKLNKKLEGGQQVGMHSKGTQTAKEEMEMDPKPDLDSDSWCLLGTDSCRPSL
Briefly: biochemical. As to conditions: read-out: % enzyme activity, 1 μM; Run 1, Run 2.

The target of the next experiment is T3, PKG1b (Homo sapiens, UniProt Q13976).
T3 sequence (Q13976 1-686 isoform Q13976-2): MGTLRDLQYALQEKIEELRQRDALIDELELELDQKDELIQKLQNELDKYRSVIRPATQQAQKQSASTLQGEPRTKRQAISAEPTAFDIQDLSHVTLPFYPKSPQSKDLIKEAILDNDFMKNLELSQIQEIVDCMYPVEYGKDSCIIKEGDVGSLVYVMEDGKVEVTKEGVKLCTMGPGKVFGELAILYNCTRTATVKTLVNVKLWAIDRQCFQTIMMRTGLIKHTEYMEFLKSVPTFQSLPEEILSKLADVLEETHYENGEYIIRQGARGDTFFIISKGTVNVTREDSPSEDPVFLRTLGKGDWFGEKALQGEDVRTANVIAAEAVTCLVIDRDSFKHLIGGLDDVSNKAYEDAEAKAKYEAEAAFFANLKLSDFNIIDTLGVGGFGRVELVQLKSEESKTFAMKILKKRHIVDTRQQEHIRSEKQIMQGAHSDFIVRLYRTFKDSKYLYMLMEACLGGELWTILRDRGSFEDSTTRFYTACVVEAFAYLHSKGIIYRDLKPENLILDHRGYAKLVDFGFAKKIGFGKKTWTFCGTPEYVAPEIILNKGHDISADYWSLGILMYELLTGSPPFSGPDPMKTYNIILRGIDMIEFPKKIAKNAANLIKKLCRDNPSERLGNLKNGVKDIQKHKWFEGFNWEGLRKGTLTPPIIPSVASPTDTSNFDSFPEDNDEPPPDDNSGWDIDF
The following applies: 1 μM; Run 1, Run 2.

Sequence of CDK1/cyclin B (P06493 whole entry): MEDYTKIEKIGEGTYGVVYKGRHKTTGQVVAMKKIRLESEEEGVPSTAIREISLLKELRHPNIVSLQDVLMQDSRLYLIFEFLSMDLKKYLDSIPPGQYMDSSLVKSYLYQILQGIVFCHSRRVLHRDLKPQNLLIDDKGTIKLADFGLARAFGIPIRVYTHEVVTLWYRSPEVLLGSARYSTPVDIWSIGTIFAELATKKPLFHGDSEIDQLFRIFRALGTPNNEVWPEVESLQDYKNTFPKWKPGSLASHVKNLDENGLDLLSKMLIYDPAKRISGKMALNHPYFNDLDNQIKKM
Sequence of CDK1/cyclin B (P14635 whole entry partner): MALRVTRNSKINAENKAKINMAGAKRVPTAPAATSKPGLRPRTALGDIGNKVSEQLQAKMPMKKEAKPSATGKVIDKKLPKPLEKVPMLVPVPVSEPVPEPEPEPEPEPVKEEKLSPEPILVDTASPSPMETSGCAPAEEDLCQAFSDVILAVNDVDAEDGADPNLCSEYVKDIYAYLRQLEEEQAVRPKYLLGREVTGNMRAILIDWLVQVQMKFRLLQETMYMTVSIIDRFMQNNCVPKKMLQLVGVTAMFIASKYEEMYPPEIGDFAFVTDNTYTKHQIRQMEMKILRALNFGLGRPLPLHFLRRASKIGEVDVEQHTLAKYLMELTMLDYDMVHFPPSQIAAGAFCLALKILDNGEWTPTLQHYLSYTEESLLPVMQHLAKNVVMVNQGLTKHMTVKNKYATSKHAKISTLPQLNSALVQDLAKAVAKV

On to `COc1cc(-c2cncc(-c3ccc(N4CCN(C)CC4)cc3)c2C)cc(F)c1C(N)=O` [Compound 26a, 2-Fluoro-6-methoxy-4-(4-methyl-5-(4-(4-methylpiperazin-1-yl)phenyl)pyridin-3-yl)benzamide], for which the values for the remaining activity at 1 µM on CDK1/cyclin B, on GLK/MAP4K3 and on NEK9 were 95.7%, 88.4% and 91.2%, respectively. For the same compound, at PKG1b, the “% enzyme activity” value is on record as 98.83%.

In the case of `COc1cc(-c2cncc(-c3ccc(N4C[C@@H](C)N(C)[C@@H](C)C4)cc3)c2C)cc(F)c1C(N)=O` [Compound 26c, 2-Fluoro-6-methoxy-4-(4-methyl-5-(4-((3R,5S)-3,4,5-trimethylpiperazin-1-yl)phenyl)pyridin-3-yl)benzamide], the values for the remaining activity at 1 µM at CDK1/cyclin B, on GLK/MAP4K3 and on NEK9 were 94%, 90.3% and 91.6%, respectively. Also, at PKG1b, the “% enzyme activity” value was determined as 96.31%.

(Values after article PMC8213057, “Targeting ALK2: An Open Science Approach to Developing Therapeutics for the Treatment of Diffuse Intrinsic Pontine Glioma” (Journal of Medicinal Chemistry, 2020).)
